The subject of this data set is cells. Description: MTT assay for cytotoxicity. The note with it: within a range of used concentrations, FIG. 3. In kind it is cell-based. For orientation: Tetrazolium dyes change colour on reduction, which living cells bring about.

Ends that are not written are not given here.

The results in this text go back to patent EP2293808B1, “AN SYNTHETIC PEPTIDE CONTAINING BONE FORMING PEPTIDE 1(BFP 1) FOR STIMULATING OSTEOBLAST DIFFERENTIATION, AND PHARMACEUTICAL COMPOSITION COMPRISING THE SYNTHETIC PEPTIDE” (Industry Foundation Of Chonnam National University, priority 2008, dated 2012).

Regarding “GQGFSYPYKAVFSTQ [BFP 1, Gly-Gln-Gly-Phe-Ser-Tyr-Pro-Tyr-Lys-Ala-Val-Phe-Ser-Thr-Gln]”, the cytotoxicity entry is “not toxic to cells”.
